Source: ChEMBL document CHEMBL5634189, “Synthesis and in Vitro Evaluation of CAPE Derivatives as Ferroptosis Inducers in Triple Negative Breast Cancer” (ACS Med Chem Lett, 2024)
Active and inactive are the calls of the source. The calls are words filed in the database; no cut-off is given here. Where a SMILES comes first, the peptide text is derived from it. The star is where a group is joined. Cbz = O=C(OCc1ccccc1)*; CH2F = FC*

Legend:
MDA-MB-231 [1] = assay: Cytotoxicity against human MDA-MB-231 cells assessed as reduction in cell viability at 50 uM incubated for 48 hrs by MTT assay; format: functional, cell-based
[2] = target: T1, Heme oxygenase 1 (Homo sapiens) (UniProt P09601); assay: Induction of HO-1 enzymatic activity in human MDA-MB-231 cells assessed as increase in bilirubin formation at 10 uM incubated for 18 hrs in presence of NADPH by double-beam spectrophotometer analysis; format: cell-based; conditions: filed as activator
T1 sequence (whole entry): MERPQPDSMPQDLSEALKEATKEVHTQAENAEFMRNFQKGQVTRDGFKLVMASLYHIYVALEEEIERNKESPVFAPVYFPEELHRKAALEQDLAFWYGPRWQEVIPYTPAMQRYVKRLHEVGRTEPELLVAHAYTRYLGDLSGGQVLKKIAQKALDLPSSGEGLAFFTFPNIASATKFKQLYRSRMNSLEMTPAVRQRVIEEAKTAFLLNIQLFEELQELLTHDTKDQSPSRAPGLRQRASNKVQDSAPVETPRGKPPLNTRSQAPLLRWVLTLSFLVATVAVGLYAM

MDA-MB-231 [3] = assay: Induction of ferroptosis in human MDA-MB-231 cells assessed as reduction in cell viability at 10 to 50 uM incubated for 24 hrs by MTT assay; format: functional, cell-based; conditions: dose 10-50 µM
MDA-MB-231 [4] = assay: Induction of ferroptosis in human MDA-MB-231 cells assessed as increase in lipid hydroperoxide level at 50 uM incubated for 30 mins in presence of ferrostatin-1; format: functional, cell-based
MDA-MB-231 [5] = assay: Upregulation of HO-1 expression in human MDA-MB-231 cells at 10 uM incubated for 18 hrs by ELISA analysis; format: functional, cell-based
MDA-MB-231 [6] = assay: Induction of ROS production in human MDA-MB-231 cells assessed as increase in fluorescence intensity measured for 1 to 6 hrs; format: functional, cell-based; conditions: time 1-6 hrs
MDA-MB-231 [7] = assay: Induction of ferroptosis in human MDA-MB-231 cells assessed as effect on IL-6 level at 50 uM incubated for 5 to 18 hrs in presence of ferrostatin-1 by ELISA analysis; format: functional, cell-based; conditions: time 5-18 hrs
Cell membrane [8] = assay: Induction of mitochondrial membrane dysfunction in human MDA-MB-231 cells assessed as decrease in red fluorescence intensity incubated for 6 hrs by JC-1 staining based fluorescence microscopic analysis; format: cell membranes
MDA-MB-231 [9] = assay: Induction of ferroptosis in human MDA-MB-231 cells assessed as reduction in cell viability at 50 uM incubated for 48 hrs in presence of ferrostatin-1 by MTT assay; format: functional, cell-based
MDA-MB-231 [10] = assay: Induction of ferroptosis in human MDA-MB-231 cells assessed as reduction in GSH content at 50 uM incubated for 20 mins in presence of ferrostatin-1 by spectrophotometric assay; format: functional, cell-based
Cell membrane [11] = assay: Induction of mitochondrial membrane dysfunction in human MDA-MB-231 cells assessed as increase in green fluorescence intensity incubated for 6 hrs by JC-1 staining based fluorescence microscopic analysis; format: cell membranes
MDA-MB-231 [12] = assay: Induction of ferroptosis in human MDA-MB-231 cells assessed as increase IL-6 level at 50 uM incubated for 5 to 18 hrs by ELISA analysis; format: functional, cell-based; conditions: time 5-18 hrs
MDA-MB-231 [13] = assay: Induction of ferroptosis in human MDA-MB-231 cells assessed as increase in intracellular Fe2+ level at 10 to 50 uM incubated for 18 hrs by colorimetric assay; format: functional, cell-based; conditions: dose 10-50 µM
MDA-MB-231 [14] = assay: Cytotoxicity against human MDA-MB-231 cells assessed as reduction in cell viability at 50 uM incubated for 48 hrs in presence of Z-VAD-FMK by MTT assay; format: functional, cell-based
MDA-MB-231 [15] = assay: Cytotoxicity against human MDA-MB-231 cells assessed as reduction in cell viability at 50 uM incubated for 48 hrs in presence of ferrostatin-1 by MTT assay; format: functional, cell-based
MDA-MB-231 [16] = assay: Induction of ferroptosis in human MDA-MB-231 cells assessed as decrease in GSH content at 10 to 50 uM incubated for 24 hrs by spectrophotometric assay; format: functional, cell-based; conditions: dose 10-50 µM

## CC(C)[C@H](NC(=O)OCc1ccccc1)C(=O)N[C@@H](C)C(=O)N[C@@H](CC(=O)O)C(=O)CF (Cbz-Val-Ala-Asp-CH2F)
MDA-MB-231 [1]
  Activity: Active

## O=C(/C=C/c1ccc(O)c(O)c1)OCCc1c[nH]c2ccccc12
[2]
  Activity: Active
MDA-MB-231 [3]
  Activity: Active

## COc1ccc(CCOC(=O)/C=C/c2ccc(O)c(O)c2)cc1
[2]
  Activity: Active
MDA-MB-231 [3]
  Activity: Active

## O=C(/C=C/c1ccccc1)OCCc1c[nH]c2ccccc12
MDA-MB-231 [4]
  Activity: Active
MDA-MB-231 [5]
  Activity: Active
[2]
  Activity: Active
MDA-MB-231 [6]
  Activity: Active
MDA-MB-231 [7]
  Activity: inactive
Cell membrane [8]
  Activity: Active
MDA-MB-231 [9]
  Activity: Active
MDA-MB-231 [10]
  Activity: Active
MDA-MB-231 [3]
  Activity: Active
Cell membrane [11]
  Activity: Active

## CCOC(=O)c1ccc(NC2CCCCC2)c(N)c1
MDA-MB-231 [1]
  Activity: Active

## O=C(/C=C/c1ccc(O)c(O)c1)OCCc1ccc2c(c1)OCO2
[2]
  Activity: Active
MDA-MB-231 [3]
  Activity: Active

## COc1ccc(OC)c(CCOC(=O)/C=C/c2ccc(O)c(O)c2)c1
[2]
  Activity: Active
MDA-MB-231 [3]
  Activity: Active

## O=C(/C=C/c1ccc(O)c(O)c1)OCCc1ccccc1
MDA-MB-231 [12]
  Activity: Active
MDA-MB-231 [13]
  Activity: Active
[2]
  Activity: Active
MDA-MB-231 [14]
  Activity: Active
MDA-MB-231 [15]
  Activity: Active
MDA-MB-231 [16]
  Activity: Active
MDA-MB-231 [1]
  Activity: Active

## COc1cc(CCOC(=O)/C=C/c2ccc(O)c(O)c2)cc(OC)c1
[2]
  Activity: Active
MDA-MB-231 [9]
  Activity: Active
MDA-MB-231 [3]
  Activity: Active

## COc1ccc(CCOC(=O)/C=C/c2ccccc2)cc1OC
[2]
  Activity: Active
MDA-MB-231 [3]
  Activity: Active

## COc1ccc(CCOC(=O)/C=C/c2ccc(O)c(O)c2)c(OC)c1
[2]
  Activity: Active
MDA-MB-231 [3]
  Activity: Active

## COc1ccc(CCOC(=O)/C=C/c2ccc(O)c(O)c2)cc1OC
[2]
  Activity: Active
MDA-MB-231 [9]
  Activity: Active
MDA-MB-231 [3]
  Activity: Active
